# Source: US20140155376A1, “PYRROLOPYRAZINE KINASE INHIBITORS” (Hoffmann-La Roche Inc., priority 2010, published 2014)
# Target: T1, JAK3 (recombinant human kinase domain; h-jak3(810-1124)) (Homo sapiens, UniProt P52333)
# T1 construct: h-jak3(810- 1124)-sf9-c; made in house; host or cells: Sf9 insect cells
# Assay: Determination of IC50 of Janus Kinase (JAK) inhibition: JAK3, radioactive end-point assay with 33P-ATP
# Type: biochemical
# Conditions: JAK3 kinase domain; ATP 1.5 uM, peptide 50 uM, 20 minutes, room temperature, 10% DMSO; read-out: Ic50 h-jak3(810-1124)-sf9-c:no additive
# T1 sequence (P52333 810-1124): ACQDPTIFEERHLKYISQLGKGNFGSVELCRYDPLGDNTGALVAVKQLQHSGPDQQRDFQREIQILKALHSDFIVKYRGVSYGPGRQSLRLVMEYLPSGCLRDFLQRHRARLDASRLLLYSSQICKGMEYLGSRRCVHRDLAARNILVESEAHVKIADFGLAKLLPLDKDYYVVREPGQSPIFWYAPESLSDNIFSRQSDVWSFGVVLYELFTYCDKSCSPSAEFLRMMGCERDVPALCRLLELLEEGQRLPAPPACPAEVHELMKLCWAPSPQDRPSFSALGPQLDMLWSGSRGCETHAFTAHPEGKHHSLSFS
row,IC50,Compound
1,0.43 nM,"C[C@H](NC(=O)c1c[nH]c2ncc(-c3ccc(C(=O)NC(C)(C)C)s3)nc12)C(C)(C)C [Example I-157, 2-(5-tert-Butylcarbamoyl-thiophen-2-yl)-5H-pyrrolo[2,3-b]pyrazine-7-carboxylic acid ((S)-1,2,2-trimethyl-propyl)-amide]"
2,5.12 nM,"Cc1cccc(-n2cnc(-c3cnc4[nH]cc(C(=O)N[C@@H](C)C(C)(C)C)c4n3)c2)c1 [Example I-150, 2-(1-m-Tolyl-1H-imidazol-4-yl)-5H-pyrrolo[2,3-b]pyrazine-7-carboxylic acid ((S)-1,2,2-trimethyl-propyl)-amide]"
3,33.6 nM,"C=Cc1cnc2[nH]cc(C(=O)NCC(C)(C)CO)c2n1 [Example I-36, 2-Vinyl-5H-pyrrolo[2,3-b]pyrazine-7-carboxylic acid (3-hydroxy-2,2-dimethyl-propyl)-amide]"
4,382 nM,"CC(C)NC(=O)c1c[nH]c2ncc(Oc3ccccc3Cl)nc12 [Example I-255, 2-(2-Chloro-phenoxy)-5H-pyrrolo[2,3-b]pyrazine-7-carboxylic acid isopropylamide]"
5,10.3 nM,"C[C@@H](NC(=O)c1c[nH]c2ncc(-c3cnn(C)c3)nc12)C(C)(C)O [Example I-102, 2-(1-Methyl-1H-pyrazol-4-yl)-5H-pyrrolo[2,3-b]pyrazine-7-carboxylic acid ((R)-2-hydroxy-1,2-dimethyl-propyl)-amide]"
6,0.6 nM,"C[C@H](NC(=O)c1c[nH]c2ncc(-c3ccc(C(=O)NCc4c(F)cccc4Cl)s3)nc12)C(C)(C)C [Example I-189, 2-[5-(2-Chloro-6-fluoro-benzylcarbamoyl)-thiophen-2-yl]-5H-pyrrolo[2,3-b]pyrazine-7-carboxylic acid ((S)-1,2,2-trimethyl-propyl)-amide]"
7,1180 nM,"CC(C)NC(=O)c1c[nH]c2ncc(Oc3ccc4ccccc4c3)nc12 [Example I-242, 2-(Naphthalen-2-yloxy)-5H-pyrrolo[2,3-b]pyrazine-7-carboxylic acid isopropylamide]"
8,3 nM,"C=Cc1cccc(-n2cnc(-c3cnc4[nH]cc(C(=O)N[C@@H](C)C(C)(C)C)c4n3)c2)c1 [Example I-163, 2-[1-(3-Vinyl-phenyl)-1H-imidazol-4-yl]-5H-pyrrolo[2,3-b]pyrazine-7-carboxylic acid ((S)-1,2,2-trimethyl-propyl)-amide]"
9,6.28 nM,"C[C@H](NC(=O)c1c[nH]c2ncc(-c3ccc(C(F)(F)F)cc3)nc12)C(C)(C)C [Example I-143, 2-(4-Trifluoromethyl-phenyl)-5H-pyrrolo[2,3-b]pyrazine-7-carboxylic acid ((S)-1,2,2-trimethyl-propyl)-amide]"
10,11.1 nM,"CC(C)(CNC(=O)c1c[nH]c2ncc(C3CC3)nc12)CS(C)(=O)=O [Example I-98, 2-Cyclopropyl-5H-pyrrolo[2,3-b]pyrazine-7-carboxylic acid (3-methanesulfonyl-2,2-dimethyl-propyl)-amide]"
11,0.32 nM,"COc1cccc(CNC(=O)c2ccc(-c3cnc4[nH]cc(C(=O)N[C@@H](C)C(C)(C)C)c4n3)s2)c1 [Example I-206, 2-[5-(3-Methoxy-benzylcarbamoyl)-thiophen-2-yl]-5H-pyrrolo[2,3-b]pyrazine-7-carboxylic acid ((S)-1,2,2-trimethyl-propyl)-amide]"
12,0.18 nM,"C[C@H](NC(=O)c1c[nH]c2ncc(-c3cccs3)nc12)C(C)(C)C [Example I-142, 2-Thiophen-2-yl-5H-pyrrolo[2,3-b]pyrazine-7-carboxylic acid ((S)-1,2,2-trimethyl-propyl)-amide]"
13,25.3 nM,"CC(C)c1cccc(-n2cnc(-c3cnc4[nH]cc(C(=O)N[C@@H](C)C(C)(C)C)c4n3)c2)c1 [Example I-152, 2-[1-(3-Isopropyl-phenyl)-1H-imidazol-4-yl]-5H-pyrrolo[2,3-b]pyrazine-7-carboxylic acid ((S)-1,2,2-trimethyl-propyl)-amide]"
14,5200 nM,"CC(C)NC(=O)c1c[nH]c2ncc(Oc3cccc4c3CCCC4)nc12 [Example I-239, 2-(5,6,7,8-Tetrahydro-naphthalen-1-yloxy)-5H-pyrrolo[2,3-b]pyrazine-7-carboxylic acid isopropylamide]"
15,2990 nM,"CC(C)NC(=O)c1c[nH]c2ncc(Oc3cccc4c3OC(C)(C)C4)nc12 [Example I-254, 2-(2,2-Dimethyl-2,3-dihydro-benzofuran-7-yloxy)-5H-pyrrolo[2,3-b]pyrazine-7-carboxylic acid isopropylamide]"
16,0.32 nM,"C[C@H](NC(=O)c1c[nH]c2ncc(-c3ccc(C(=O)NCc4cccnc4)s3)nc12)C(C)(C)C [Example I-164, 2-{5-[(Pyridin-3-ylmethyl)-carbamoyl]-thiophen-2-yl}-5H-pyrrolo[2,3-b]pyrazine-7-carboxylic acid ((S)-1,2,2-trimethyl-propyl)-amide]"
17,192 nM,"CC(O)CC(C)(C)NC(=O)c1c[nH]c2ncc(C3CC3)nc12 (stereo not shown) [Example I-12, 2-Cyclopropyl-5H-pyrrolo[2,3-b]pyrazine-7-carboxylic acid (3-hydroxy-1,1-dimethyl-butyl)-amide]"

row,IC50,Compound
1,4.61 nM,"C[C@H](NC(=O)c1c[nH]c2ncc(-c3cn(-c4cccc(Cl)c4)cn3)nc12)C(C)(C)C [Example I-145, 2-[1-(3-Chloro-phenyl)-1H-imidazol-4-yl]-5H-pyrrolo[2,3-b]pyrazine-7-carboxylic acid ((S)-1,2,2-trimethyl-propyl)-amide]"
2,0.32 nM,"C[C@H](NC(=O)c1c[nH]c2ncc(-c3ccc(C(=O)N4CCC(C(=O)O)CC4)s3)nc12)C(C)(C)C [Example I-182, 1-{5-[7-((S)-1,2,2-Trimethyl-propylcarbamoyl)-5H-pyrrolo[2,3-b]pyrazin-2-yl]-thiophene-2-carbonyl}-piperidine-4-carboxylic acid]"
3,0.36 nM,"C[C@H](NC(=O)c1c[nH]c2ncc(-c3ccc(C(=O)N4CCCCC4)s3)nc12)C(C)(C)C#N [Example I-224, 2-[5-(Piperidine-1-carbonyl)-thiophen-2-yl]-5H-pyrrolo[2,3-b]pyrazine-7-carboxylic acid ((S)-2-cyano-1,2,2-trimethyl-ethyl)-amide]"
4,20.6 nM,"N#CC[C@@H](NC(=O)c1c[nH]c2ncc(C3CC3)nc12)C1CC1 [Example I-135, 2-Cyclopropyl-5H-pyrrolo[2,3-b]pyrazine-7-carboxylic acid ((R)-2-cyano-1-cyclopropyl-ethyl)-amide]"
5,0.65 nM,"C[C@H](Cc1cnc[nH]1)NC(=O)c1ccc(-c2cnc3[nH]cc(C(=O)N[C@@H](C)C(C)(C)C)c3n2)s1 [Example I-199, 2-{5-[(R)-2-(3H-Imidazol-4-yl)-1-methyl-ethylcarbamoyl]-thiophen-2-yl}-5H-pyrrolo[2,3-b]pyrazine-7-carboxylic acid ((S)-1,2,2-trimethyl-propyl)-amide]"
6,3.25 nM,"Cc1ccc(F)c(-n2cnc(-c3cnc4[nH]cc(C(=O)N[C@@H](C)C(C)(C)C)c4n3)c2)c1 [Example I-148, 2-[1-(2-Fluoro-5-methyl-phenyl)-1H-imidazol-4-yl]-5H-pyrrolo[2,3-b]pyrazine-7-carboxylic acid ((S)-1,2,2-trimethyl-propyl)-amide]"
7,1.34 nM,"C[C@H](NC(=O)c1c[nH]c2ncc(-c3ccc(C(=O)NC45CC6CC(CC(C6)C4)C5)s3)nc12)C(C)(C)C [Example I-194, 2-[5-(Adamantan-1-ylcarbamoyl)-thiophen-2-yl]-5H-pyrrolo[2,3-b]pyrazine-7-carboxylic acid ((S)-1,2,2-trimethyl-propyl)-amide]"
8,78.6 nM,"O=C(NC(C1CCCCC1)C1CC1)c1c[nH]c2ncc(C3CC3)nc12 (stereo not shown) [Example I-78, 2-Cyclopropyl-5H-pyrrolo[2,3-b]pyrazine-7-carboxylic acid (cyclohexyl-cyclopropyl-methyl)-amide]"
9,152 nM,"CC(C)NC(=O)c1c[nH]c2ncc(Oc3ccc4c(c3)[C@H](NC(=O)c3ccccc3)CC4)nc12 [Example I-286, 2-((R)-3-Benzoylamino-indan-5-yloxy)-5H-pyrrolo[2,3-b]pyrazine-7-carboxylic acid isopropylamide]"
10,7.46 nM,"C[C@@H](NC(=O)c1c[nH]c2ncc(C3CC3)nc12)C(C)(C)C [Example I-62, 2-Cyclopropyl-5H-pyrrolo[2,3-b]pyrazine-7-carboxylic acid ((R)-1,2,2-trimethyl-propyl)-amide]"
11,75.4 nM,"C[C@H](NC(=O)c1c[nH]c2ncc(-c3cn(-c4cccc(C(C)(C)C)c4)cn3)nc12)C(C)(C)C [Example I-153, 2-[1-(3-tert-Butyl-phenyl)-1H-imidazol-4-yl]-5H-pyrrolo[2,3-b]pyrazine-7-carboxylic acid ((S)-1,2,2-trimethyl-propyl)-amide]"
12,5.23 nM,"C[C@H](NC(=O)c1c[nH]c2ncc(C3=CCCC3)nc12)C(C)(C)O [Example I-2, 2-Cyclopent-1-enyl-5H-pyrrolo[2,3-b]pyrazine-7-carboxylic acid ((S)-2-hydroxy-1,2-dimethyl-propyl)-amide]"
13,14.5 nM,"N#CC(NC(=O)c1c[nH]c2ncc(C3CC3)nc12)C1CC1 (stereo not shown) [Example I-90, 2-Cyclopropyl-5H-pyrrolo[2,3-b]pyrazine-7-carboxylic acid (cyano-cyclopropyl-methyl)-amide]"
14,3980 nM,"Cc1ncccc1Oc1cnc2[nH]cc(C(=O)NC(C)C)c2n1 [Example I-280, 2-(2-Methyl-pyridin-3-yloxy)-5H-pyrrolo[2,3-b]pyrazine-7-carboxylic acid isopropylamide]"
15,626 nM,"CCNC(=O)c1c[nH]c2ncc(Oc3cccc4[nH]ccc34)nc12 [Example I-275, 2-(1H-Indol-4-yloxy)-5H-pyrrolo[2,3-b]pyrazine-7-carboxylic acid ethylamide]"
16,24.4 nM,"C[C@H](NC(=O)c1c[nH]c2ncc(Oc3ccccc3)nc12)C(C)(C)C [Example I-120, 2-Phenoxy-5H-pyrrolo[2,3-b]pyrazine-7-carboxylic acid ((S)-1,2,2-trimethyl-propyl)-amide]"
17,46 nM,"CC[C@@H](NC(=O)c1c[nH]c2ncc(C3CC3)nc12)C(C)(C)O [Example I-44, 2-Cyclopropyl-5H-pyrrolo[2,3-b]pyrazine-7-carboxylic acid ((R)-1-ethyl-2-hydroxy-2-methyl-propyl)-amide]"
